# Where “and” joins values, the source holds several entries; their conditions need not be identical. Equal values may be shown once.
# Experiments:
# Experiment in all cases: Fluorescence polarization assay, FAM-labeled [AG]10 RNA and recombinant eIF4A
# Assay type in all cases: binding
# [1] = molecular target: Ophiocordyceps sp. BRM1 eIF4A iso4 Gly172His; settings: for Fluorescence polarization signal, FAM-labeled [AG]10 RNA, single replicates / Fluorescence polarization signal, FAM-labeled [AG]10 RNA, Mean: ADP + Pi, aglafoline; for Fluorescence polarization signal, FAM-labeled [AG]10 RNA, single replicates: Replicate 1-3; for Fluorescence polarization signal, FAM-labeled [AG]10 RNA, Mean: mean of 3 replicates
# Procedure: (§1) The fluorescence polarization assay was performed as previously described ([Chen et al., 2021]). […] After incubation at room temperature for 30 min, the mixture was transferred to a black 384-well microplate (Corning), and the fluorescence polarization was measured by an Infinite F-200 PRO (Tecan). Under ADP + Pi conditions, 1 mM ADP (Fujifilm Wako Chemicals) and 1 mM Na2HPO4 were used as substitutes for AMP-PNP. The data were fitted to the Hill equation to calculate Kd values and visualized by Igor Pro v8.01 (WaveMetrics).
# [2] = molecular target: Ophiocordyceps sp. BRM1 eIF4A iso4 WT Gly172; settings: for Fluorescence polarization signal, FAM-labeled [AG]10 RNA, single replicates / Fluorescence polarization signal, FAM-labeled [AG]10 RNA, Mean: ADP + Pi, aglafoline; for Fluorescence polarization signal, FAM-labeled [AG]10 RNA, single replicates: Replicate 1-3; for Fluorescence polarization signal, FAM-labeled [AG]10 RNA, Mean: mean of 3 replicates
# Procedure: as §1
# [3] = molecular target: Ophiocordyceps sp. BRM1 eIF4A iso4 Gly172Phe; settings: for Fluorescence polarization, Replicate 1-3 / fluorescence polarization, Mean: [AG]10 RNA, ADP + Pi, Aglafoline
# Procedure: as §1
# [4] = [AG]10 10 nM, ADP + Pi (1 mM each), compound 50 µM, read-out: Kd between eIF4A protein and RNA
smiles,measurement,setting,value
"COC(=O)[C@H]1[C@@H](O)[C@@]2(O)c3c(OC)cc(OC)cc3O[C@@]2(c2ccc(OC)cc2)[C@@H]1c1ccccc1 [Aglafoline, methyl rocaglate]",Kd,[1]; [4],1500 ± 140 nM
same,"Fluorescence polarization signal, FAM-labeled [AG]10 RNA, single replicates",[1]; protein concentration 0.01 μM,-0.03825 and 0.04372 (2×)
same,"Fluorescence polarization signal, FAM-labeled [AG]10 RNA, Mean",[1]; protein concentration 0.01 μM,0.01639
same,"Fluorescence polarization signal, FAM-labeled [AG]10 RNA, single replicates",[1]; protein concentration 0.05 μM,0.04372 and 0.1011 and 0.0765
same,"Fluorescence polarization signal, FAM-labeled [AG]10 RNA, Mean",[1]; protein concentration 0.05 μM,0.07377
same,"Fluorescence polarization signal, FAM-labeled [AG]10 RNA, single replicates",[1]; protein concentration 0.075 μM,0.0847 and 0.06011 and 0.03552
same,"Fluorescence polarization signal, FAM-labeled [AG]10 RNA, Mean",[1]; protein concentration 0.075 μM,0.06011
same,"Fluorescence polarization signal, FAM-labeled [AG]10 RNA, single replicates",[1]; protein concentration 0.1 μM,0.0847 and 0.06011 and 0.06831
same,"Fluorescence polarization signal, FAM-labeled [AG]10 RNA, Mean",[1]; protein concentration 0.1 μM,0.07104
same,"Fluorescence polarization signal, FAM-labeled [AG]10 RNA, single replicates",[1]; protein concentration 0.5 μM,0.3388 and 0.429 and 0.3634
same,"Fluorescence polarization signal, FAM-labeled [AG]10 RNA, Mean",[1]; protein concentration 0.5 μM,0.377
same,"Fluorescence polarization signal, FAM-labeled [AG]10 RNA, single replicates",[1]; protein concentration 0.75 μM,0.5191 and 0.4372 and 0.429
same,"Fluorescence polarization signal, FAM-labeled [AG]10 RNA, Mean",[1]; protein concentration 0.75 μM,0.4617
same,"Fluorescence polarization signal, FAM-labeled [AG]10 RNA, single replicates",[1]; protein concentration 1 μM,0.5765 and 0.7158 and 0.5847
same,"Fluorescence polarization signal, FAM-labeled [AG]10 RNA, Mean",[1]; protein concentration 1 μM,0.6257
same,"Fluorescence polarization signal, FAM-labeled [AG]10 RNA, single replicates",[1]; protein concentration 5 μM,1.011 and 0.9208 and 0.888
same,"Fluorescence polarization signal, FAM-labeled [AG]10 RNA, Mean",[1]; protein concentration 5 μM,0.9399
same,"Fluorescence polarization signal, FAM-labeled [AG]10 RNA, single replicates",[1]; protein concentration 7.5 μM,1.019 and 0.9372 and 0.9699
same,"Fluorescence polarization signal, FAM-labeled [AG]10 RNA, Mean",[1]; protein concentration 7.5 μM,0.9754
same,"Fluorescence polarization signal, FAM-labeled [AG]10 RNA, single replicates",[1]; protein concentration 10 μM,1.126 and 1.06 and 1.027
same,"Fluorescence polarization signal, FAM-labeled [AG]10 RNA, Mean",[1]; protein concentration 10 μM,1.071
same,"Fluorescence polarization signal, FAM-labeled [AG]10 RNA, single replicates",[1]; protein concentration 25 μM,1.208 and 1.167 and 1.15
same,"Fluorescence polarization signal, FAM-labeled [AG]10 RNA, Mean",[1]; protein concentration 25 μM,1.175
same,"Fluorescence polarization signal, FAM-labeled [AG]10 RNA, single replicates",[1]; protein concentration 50 μM,1.191 and 1.306 and 1.257
same,"Fluorescence polarization signal, FAM-labeled [AG]10 RNA, Mean",[1]; protein concentration 50 μM,1.251
same,Kd,[2]; [4],2600 ± 400 nM
same,"Fluorescence polarization signal, FAM-labeled [AG]10 RNA, single replicates",[2]; protein concentration 0.01 μM,0.02459 and 0.04098 and 0.008197
same,"Fluorescence polarization signal, FAM-labeled [AG]10 RNA, Mean",[2]; protein concentration 0.01 μM,0.02459
same,"Fluorescence polarization signal, FAM-labeled [AG]10 RNA, single replicates",[2]; protein concentration 0.05 μM,0.03279 and -0.008197 and -0.07377
same,"Fluorescence polarization signal, FAM-labeled [AG]10 RNA, Mean",[2]; protein concentration 0.05 μM,-0.01639
same,"Fluorescence polarization signal, FAM-labeled [AG]10 RNA, single replicates",[2]; protein concentration 0.075 μM,-0.04918 and -0.03279 and 0.01639
same,"Fluorescence polarization signal, FAM-labeled [AG]10 RNA, Mean",[2]; protein concentration 0.075 μM,-0.02186
same,"Fluorescence polarization signal, FAM-labeled [AG]10 RNA, single replicates",[2]; protein concentration 0.1 μM,-0.02459 and -0.04098 and -0.05738
same,"Fluorescence polarization signal, FAM-labeled [AG]10 RNA, Mean",[2]; protein concentration 0.1 μM,-0.04098
same,"Fluorescence polarization signal, FAM-labeled [AG]10 RNA, single replicates",[2]; protein concentration 0.5 μM,0.1557 and -0.1066 and 0.01639
same,"Fluorescence polarization signal, FAM-labeled [AG]10 RNA, Mean",[2]; protein concentration 0.5 μM,0.02186
same,"Fluorescence polarization signal, FAM-labeled [AG]10 RNA, single replicates",[2]; protein concentration 0.75 μM,0.1967 and 0.03279 and 0.1721
same,"Fluorescence polarization signal, FAM-labeled [AG]10 RNA, Mean",[2]; protein concentration 0.75 μM,0.1339
same,"Fluorescence polarization signal, FAM-labeled [AG]10 RNA, single replicates",[2]; protein concentration 1 μM,0.09836 and 0.06557 and 0.1557
same,"Fluorescence polarization signal, FAM-labeled [AG]10 RNA, Mean",[2]; protein concentration 1 μM,0.1066
same,"Fluorescence polarization signal, FAM-labeled [AG]10 RNA, single replicates",[2]; protein concentration 5 μM,0.582 and 0.6803 and 0.5902
same,"Fluorescence polarization signal, FAM-labeled [AG]10 RNA, Mean",[2]; protein concentration 5 μM,0.6175
same,"Fluorescence polarization signal, FAM-labeled [AG]10 RNA, single replicates",[2]; protein concentration 7.5 μM,0.5902 and 0.6311 and 0.7541
same,"Fluorescence polarization signal, FAM-labeled [AG]10 RNA, Mean",[2]; protein concentration 7.5 μM,0.6585
same,"Fluorescence polarization signal, FAM-labeled [AG]10 RNA, single replicates",[2]; protein concentration 10 μM,0.6557 and 0.7049 and 0.7131
same,"Fluorescence polarization signal, FAM-labeled [AG]10 RNA, Mean",[2]; protein concentration 10 μM,0.6913
same,"Fluorescence polarization signal, FAM-labeled [AG]10 RNA, single replicates",[2]; protein concentration 25 μM,0.7787 and 0.8279 and 0.877
same,"Fluorescence polarization signal, FAM-labeled [AG]10 RNA, Mean",[2]; protein concentration 25 μM,0.8279
same,Kd,[3]; [4],110 ± 21 nM
same,"Fluorescence polarization, Replicate 1-3",[3]; protein concentration 0.01 μM,0.1148 and 0.008197 and 0.04098
same,"fluorescence polarization, Mean",[3]; protein concentration 0.01 μM,0.05464
same,"Fluorescence polarization, Replicate 1-3",[3]; protein concentration 0.05 μM,0.2869 (2×) and 0.3279
same,"fluorescence polarization, Mean",[3]; protein concentration 0.05 μM,0.3005
same,"Fluorescence polarization, Replicate 1-3",[3]; protein concentration 0.075 μM,0.3689 and 0.3279 and 0.2869
same,"fluorescence polarization, Mean",[3]; protein concentration 0.075 μM,0.3279
same,"Fluorescence polarization, Replicate 1-3",[3]; protein concentration 0.1 μM,0.5164 and 0.3115 and 0.2787
same,"fluorescence polarization, Mean",[3]; protein concentration 0.1 μM,0.3689
same,"Fluorescence polarization, Replicate 1-3",[3]; protein concentration 0.5 μM,0.9262 and 0.9426 and 0.8197
same,"fluorescence polarization, Mean",[3]; protein concentration 0.5 μM,0.8962
same,"Fluorescence polarization, Replicate 1-3",[3]; protein concentration 0.75 μM,0.9508 and 0.8443 and 0.8934
same,"fluorescence polarization, Mean",[3]; protein concentration 0.75 μM,0.8962
same,"Fluorescence polarization, Replicate 1-3",[3]; protein concentration 1 μM,0.7869 and 0.877 and 0.7623
same,"fluorescence polarization, Mean",[3]; protein concentration 1 μM,0.8087
same,"Fluorescence polarization, Replicate 1-3",[3]; protein concentration 5 μM,0.9016 and 0.9426 and 0.8852
same,"fluorescence polarization, Mean",[3]; protein concentration 5 μM,0.9098
same,"Fluorescence polarization, Replicate 1-3",[3]; protein concentration 7.5 μM,0.8934 and 1.016 and 0.9344
same,"fluorescence polarization, Mean",[3]; protein concentration 7.5 μM,0.9481
same,"Fluorescence polarization, Replicate 1-3",[3]; protein concentration 10 μM,1.057 and 0.8934 and 0.877
same,"fluorescence polarization, Mean",[3]; protein concentration 10 μM,0.9426
same,"Fluorescence polarization, Replicate 1-3",[3]; protein concentration 25 μM,0.8852 and 1.033 and 1.057
same,"fluorescence polarization, Mean",[3]; protein concentration 25 μM,0.9918
